Converted amounts (≈) assume the structure as drawn. Like-named read-outs stand apart in the source and are kept apart here.
Columns and labels:
HCT116 (colon cancer) = experiment: MTT assay, HCT116 cells; assay type: cell-based, human; settings: for IC50: Homo sapiens, HCT-116, MTT, 72 h, read-out: IC50 HCT116; for SI HCT116: SI = IC50 for normal cell line (HaCaT)/IC50 cancer cell line
Method: (§1) The human cell lines, such as A549 (lung cancer), MDA-MB-231 (breast cancer), MiaPaca-2 (pancreatic cancer), PC3 (metastatic prostate cancer), HCT-116 (colon carcinoma), and HaCaT (immortalized keratinocytes), were sourced from the American Type Culture Collection (ATCC) in Rockville, USA. Culturing conditions varied as follows: HCT116 cells were cultured in MEM (ThermoSci, Waltham, MA, USA), A549, MDA-MB-231, MiaPaca, HaCaT cells in DMEM High Glucose and PC3 cells were cultured in RPMI (Biowest SAS, Nuaillé, France). The growth medium consisted of 10% fetal bovine serum (FBS, Sigma-Aldrich, St. Louis, MO, USA), 20 mM HEPES (Biowest, Nuaillé, France), and antibiotics (100 U/mL of penicillin and 100 μg/mL of streptomycin) from Gibco, Grand Island, NY, USA. […] These compounds were added to 96-well plates containing study cells (1 × 10^4 cells per well) and incubated for 72 h. […] Cell absorbance results were incorporated into the formula for calculating the relative MTT level (%), enabling the assessment of cell viability following exposure to the test compounds. The cell viability percentage represents the MTT reduction in cells treated with the test compounds compared to the control sample, where only the medium was added to the cells.

A549 (lung cancer) = experiment: MTT assay, A549 cells; assay type: cell-based, human; settings: for IC50: Homo sapiens, A549, MTT, 72 h, mean SD, read-out: IC50 A549; for SI A549: SI = IC50 for normal cell line (HaCaT)/IC50 cancer cell line
Method: as §1

[1] = tested on: HaCaT (immortalized human keratinocytes); experiment: MTT assay, HaCaT normal cells; assay type: cell-based; settings: Homo sapiens, HaCaT, MTT, 72 h, normal cells
Method: as §1

[2] = tested on: S. epidermidis ATCC 12228; experiment: MIC broth microdilution; assay type: cell-based; settings: Staphylococcus epidermidis, ATCC12228; 19 h, 35 °C; read-out: MIC S. epidermidis ATCC 12228
Description: (§2) To evaluate the antibacterial effectiveness of chloroquinobenzothiazine derivatives, various bacterial strains from international microbe collections such as the American Type Culture Collection (ATCC) and the National Collection of Type Culture (NCTC) were examined, alongside a panel of clinical rods. This included two Gram-negative organisms, E. coli ATCC 25922 and P. aeruginosa ATCC 15442, and a series of six Gram-positive strains: S. aureus NCTC 4163; S. aureus ATCC 29213, 25923, and 6538; and S. epidermidis ATCC 12228 and 35984. […] The MIC was determined using the two-fold serial broth microdilution method in 96-well microtitration plates containing Mueller-Hinton II broth medium (Becton Dickinson, Franklin Lakes, NJ, USA). The final inoculum for all tested bacteria was adjusted to […] (colony-forming units per milliliter). The stock solution of the tested compounds was prepared in dimethyl sulfoxide (DMSO) and diluted to a maximum of 1% solvent content with a sterile medium.

E. coli ATCC 25922 = experiment: MIC broth microdilution; assay type: cell-based; settings: Escherichia coli, ATCC25922; 19 h, 35 °C; read-out: MIC E. coli ATCC 25922
Description: as §2

P. aeruginosa ATCC 15442 = experiment: MIC broth microdilution; assay type: cell-based; settings: Pseudomonas aeruginosa, ATCC15442; 19 h, 35 °C; read-out: MIC P. aeruginosa ATCC 15442
Description: as §2

S. aureus ATCC 6538 = experiment: MIC broth microdilution; assay type: cell-based; settings: Staphylococcus aureus, ATCC6538; 19 h, 35 °C; read-out: MIC S. aureus ATCC 6538
Description: as §2

S. aureus NCTC 4163 = experiment: MIC broth microdilution; assay type: cell-based; settings: Staphylococcus aureus, NCTC4163; 19 h, 35 °C; read-out: MIC S. aureus NCTC 4163
Description: as §2

[3] = tested on: S. epidermidis ATCC 35984; experiment: MIC broth microdilution; assay type: cell-based; settings: Staphylococcus epidermidis, ATCC35984; 19 h, 35 °C; read-out: MIC S. epidermidis ATCC 35984
Description: as §2

S. aureus ATCC 29213 = experiment: MIC broth microdilution; assay type: cell-based; settings: Staphylococcus aureus, ATCC29213; 19 h, 35 °C; read-out: MIC S. aureus ATCC 29213
Description: as §2

S. aureus ATCC 25923 = experiment: MIC broth microdilution; assay type: cell-based; settings: Staphylococcus aureus, ATCC25923; 19 h, 35 °C; read-out: MIC S. aureus ATCC 25923
Description: as §2

PC3 (prostate cancer) = experiment: MTT assay, PC3 cells; assay type: cell-based, human; settings: for IC50: Homo sapiens, PC-3, MTT, 72 h, read-out: IC50 PC3; for SI PC3: SI = IC50 for normal cell line (HaCaT)/IC50 cancer cell line
Method: as §1

[4] = tested on: MiaPaCa-2 (pancreas cancer); experiment: MTT assay, MiaPaCa-2 cells; assay type: cell-based, human; settings: for IC50: Homo sapiens, MIA PaCa-2, MTT, 72 h, read-out: IC50 MiaPaCa-2; for SI MiaPaCa-2: SI = IC50 for normal cell line (HaCaT)/IC50 cancer cell line
Method: as §1

[5] = tested on: MDA-MB-231 (breast cancer); experiment: MTT assay, MDA-MB-231 cells; assay type: cell-based, human; settings: for IC50: Homo sapiens, MDA-MB-231, MTT, 72 h, MDA-MB231, read-out: IC50 MDA; for SI MDA: SI = IC50 for normal cell line (HaCaT)/IC50 cancer cell line
Method: as §1

HCT116 cells [6] = experiment: Annexin V-FITC/PI apoptosis flow cytometry, HCT116; assay type: cell-based, human
Method: (§3) To analyze the number of cells in early apoptosis, late apoptosis, or necrosis, A549, MiaPaca-2, and HCT-116 cell lines were cultured in 6-well plates with a seeding density of 1 × 10^5 cells per well. These cells were then treated with selected compounds (4, 5, and 8) at their respective IC50 concentrations and incubated for 72 h. Subsequently, a commercially available kit, the FITC: Annexin V Apoptosis Detection Kit I from BD Biosciences Pharmingen in San Jose, CA, USA, was utilized to assess apoptosis. After 72 h the cells were harvested, washed, and labeled with Annexin V-FITC and propidium iodide (PI) following the manufacturer’s protocol (Becton Dickinson), as previously described. The stained cells were analyzed by flow cytometry. The cells were identified as early apoptotic (Annexin V+/PI−) or late apoptotic/necrotic (Annexin V+/PI+).

HCT116 cells [7] = experiment: Cell cycle analysis by flow cytometry, HCT116; assay type: cell-based, human; settings: IC50, 24 h, compared to the control
Method: In brief, cells were seeded at a density of 1 × 10^5 cells/well on a six-well plate and allowed to adhere for 24 h. […] Both population cells (the attached and detached) were collected and centrifuged at 400× g for 5 min at 4 °C. After centrifugation, the cells were washed twice with 0.9% NaCl and subsequently fixed in 500 μL of 70 % cold ethanol overnight.
Before analysis, the fixed cells underwent another centrifugation step at 850× g for 5 min at 4 °C and were washed with PBS. Following the washes, the cells were incubated with 50 μL of RNase (100 μg/mL) and 200 μL of propidium iodide (PI) (50 μg/mL) at 37 °C for 30 min in the dark. Finally, 100 μL of PBS was added to each sample. Flow cytometry (Becton Dickinson FACS Verse, Franklin Lakes, NJ, USA) was then used to analyze the cell cycle distribution, identifying cells in various stages including sub-G1, G0/G1, S, and G2/M phases. Each assay was performed in quadruplicate.

A549 cells = experiment: Annexin V-FITC/PI apoptosis flow cytometry, A549; assay type: cell-based, human
Method: as §3

[8] = representative dot plot, Figure 4C, IC50, 72 h
[9] = representative dot plot, Figure 4A, IC50, 72 h

SMILES | IC50 (HCT116 (colon cancer)) [µM] | SI HCT116 (HCT116 (colon cancer)) | IC50 (A549 (lung cancer)) [µM] | SI A549 (A549 (lung cancer)) | IC50 ([1]; read-out: IC50 HaCaT (Table 3)) [µM] | MIC [2] [µg/mL] | MIC (E. coli ATCC 25922) [µg/mL] | MIC (P. aeruginosa ATCC 15442) [µg/mL] | MIC (S. aureus ATCC 6538) [µg/mL] | MIC (S. aureus NCTC 4163) [µg/mL] | MIC [3] [µg/mL] | MIC (S. aureus ATCC 29213) [µg/mL] | MIC (S. aureus ATCC 25923) [µg/mL] | IC50 (PC3 (prostate cancer)) [µM] | SI PC3 (PC3 (prostate cancer)) | IC50 [4] [µM] | SI MiaPaCa-2 [4] | IC50 [5] [µM] | SI MDA [5] | IC50 ([1]; read-out: IC50 HaCaT (Table 4)) [µM] | further results
Clc1ccc2c(c1)N(CCN1CCCC1)c1nc3ccccc3cc1S2 [Compound 9, 8-Chloro-6-(2-(pyrrolidin-1-yl)ethyl)-quino[3,2-b]benzo[1,4]thiazine] | 17.5 ± 1.4 | 5.7 | 17.4 ± 4.1 | 5.7 | > 100 | 16 (≈ 41.9 µM) | > 256 | > 256 | 16 (≈ 41.9 µM) | 16 (≈ 41.9 µM) | 16 (≈ 41.9 µM) | 16 (≈ 41.9 µM) | 16 (≈ 41.9 µM) | 77.1 ± 9.4 | 1.3 | 57.4 ± 9.6 | 1.7 | 77.1 ± 1.6 | 1.3 | – | –
CS(=O)(=O)NCCCCN1c2cc(Cl)ccc2Sc2cc3ccccc3nc21 [Compound 23, N-(4-(8-Chloroquino[3,2-b]benzo[1,4]thiazin-6-yl)butyl)methanesulfonamide] | 0.7 ± 0.08 | 143 | 30.5 ± 8.3 | 3.3 | > 100 | > 256 | > 256 | > 256 | > 256 | > 256 | > 256 | > 256 | > 256 | > 100 | 1.0 | 98.4 ± 5.6 | 1.0 | > 100 | – | – | cells in late apoptosis/necrosis, HCT116 (HCT116 cells [6]; compound at IC50, 72 h): 93%; HCT-116: Alive (HCT116 cells [6]; [8]): 3.42%; HCT-116: Early Apoptotic (HCT116 cells [6]; [8]): 0.76%; HCT-116: Necrotic (HCT116 cells [6]; [8]): 3.85%; HCT-116: Necrotic/Late Apoptotic (HCT116 cells [6]; [8]): 91.97%; increase in the cell amount at the sub-G1 phase, HCT116 (HCT116 cells [7]): 11 fold; increase in the number of cells in the G2/M phase, HCT116 (HCT116 cells [7]): approximately 1.3 fold; increase in the number of cells in the S phase, HCT116 (HCT116 cells [7]): approximately 2 fold
Cc1ccc(S(=O)(=O)NCCCCN2c3cc(Cl)ccc3Sc3cc4ccccc4nc32)cc1 [Compound 25, N-(4-(8-Chloroquino[3,2-b]benzo[1,4]thiazin-6-yl)butyl)-4-methylbenzenesulfonamide] | > 100 | 1.0 | 9.45 ± 1.3 | – | < 100 | > 256 | > 256 | > 256 | > 256 | > 256 | > 256 | > 256 | > 256 | 48.6 ± 4.7 | 2.0 | > 100 | 1.0 | > 100 | 1.0 | > 100 | cells in late apoptosis or necrosis, A549 (A549 cells; compound at IC50, 72 h): 82%; A549: Alive (A549 cells; [9]): 16.32%; A549: Early Apoptotic (A549 cells; [9]): 0.60%; A549: Necrotic (A549 cells; [9]): 32.75%; A549: Necrotic/Late Apoptotic (A549 cells; [9]): 50.34%
Clc1ccc2c(c1)N(Cc1cn(-c3ccccc3)nn1)c1nc3ccccc3cc1S2 [Compound 27, 8-Chloro-6-((1-phenyl-1H-1,2,3-triazol-4-yl)methyl)-quino[3,2-b]benzo[1,4]thiazine] | 49.6 ± 4.7 | 1.4 | 27.5 ± 6.2 | 2.5 | 70.2 ± 10.4 | > 256 | > 256 | > 256 | > 256 | > 256 | > 256 | > 256 | > 256 | > 100 | 1.0 | 37.4 ± 5.6 | 1.9 | > 100 | 0.7 | 71.7 ± 7.5 | –
